Reference: US11331299B2, “Medicinal use of serrulatane diterpenes” (The University of Sydney, priority 2016, dated 2022)
Values joined by “and” are separate entries in the source; they are usually repeats but may differ in a detail not shown here. Equal entries are not always repeated. Where two headings read alike, the source gives them in different places.

Key:
Angiotensin, AT1/ACE = experiment: Angiotensin, AT1/ACE, guinea pig ileum (isotonic); design: species or system Dunkin Hartley Guinea pig; settings: 10 μM; assay year 2015
Method: (§1) The in vitro pharmacological studies were conducted by Eurofins PanLab (Taiwan) using the parameters shown in Table 13 with respect to appropriate literature references.

PRMT4 (h) = target: T1, PRMT4 (h) (Homo sapiens, UniProt Q86X55); experiment: Epigenetic enzyme assay, Methyltransferases (MTs); format: biochemical; settings: for inhibition at 10 µM: read-out: % Inhibition of Control Values; for IC50: Table 11, inhibition/concentration-response curve
T1 sequence (Q86X55 1-608): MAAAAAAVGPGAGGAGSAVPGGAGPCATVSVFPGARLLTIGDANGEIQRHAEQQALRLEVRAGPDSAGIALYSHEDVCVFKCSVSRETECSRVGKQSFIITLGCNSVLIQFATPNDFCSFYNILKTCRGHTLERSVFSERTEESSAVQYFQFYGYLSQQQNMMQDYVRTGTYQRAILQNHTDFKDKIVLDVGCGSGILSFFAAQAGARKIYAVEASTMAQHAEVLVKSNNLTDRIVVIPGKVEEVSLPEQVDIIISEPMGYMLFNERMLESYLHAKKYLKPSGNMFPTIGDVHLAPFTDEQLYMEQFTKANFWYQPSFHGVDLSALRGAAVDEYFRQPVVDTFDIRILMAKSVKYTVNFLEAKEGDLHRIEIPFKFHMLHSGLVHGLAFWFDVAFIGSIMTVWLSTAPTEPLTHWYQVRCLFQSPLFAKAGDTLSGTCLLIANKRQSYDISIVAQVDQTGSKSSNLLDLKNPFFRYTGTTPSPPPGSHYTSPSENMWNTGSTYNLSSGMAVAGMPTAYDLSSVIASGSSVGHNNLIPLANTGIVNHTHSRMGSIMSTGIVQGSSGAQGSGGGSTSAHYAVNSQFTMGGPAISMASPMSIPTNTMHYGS

MLL2(h) complex = experiment: Epigenetic enzyme assay, Methyltransferases (MTs); format: biochemical, human; settings: for % Inhibition of Control Values: 10 μM
5-Lipoxygenase = target: T2, 5-Lipoxygenase (Homo sapiens, UniProt P09917); experiment: 5-Lipoxygenase; format: biochemical; settings: for remaining activity at 10 µM: assay year 2015, read-out: % Control Response
T2 construct: host or cells: Insect Sf9 cells
T2 sequence (P09917 1-674): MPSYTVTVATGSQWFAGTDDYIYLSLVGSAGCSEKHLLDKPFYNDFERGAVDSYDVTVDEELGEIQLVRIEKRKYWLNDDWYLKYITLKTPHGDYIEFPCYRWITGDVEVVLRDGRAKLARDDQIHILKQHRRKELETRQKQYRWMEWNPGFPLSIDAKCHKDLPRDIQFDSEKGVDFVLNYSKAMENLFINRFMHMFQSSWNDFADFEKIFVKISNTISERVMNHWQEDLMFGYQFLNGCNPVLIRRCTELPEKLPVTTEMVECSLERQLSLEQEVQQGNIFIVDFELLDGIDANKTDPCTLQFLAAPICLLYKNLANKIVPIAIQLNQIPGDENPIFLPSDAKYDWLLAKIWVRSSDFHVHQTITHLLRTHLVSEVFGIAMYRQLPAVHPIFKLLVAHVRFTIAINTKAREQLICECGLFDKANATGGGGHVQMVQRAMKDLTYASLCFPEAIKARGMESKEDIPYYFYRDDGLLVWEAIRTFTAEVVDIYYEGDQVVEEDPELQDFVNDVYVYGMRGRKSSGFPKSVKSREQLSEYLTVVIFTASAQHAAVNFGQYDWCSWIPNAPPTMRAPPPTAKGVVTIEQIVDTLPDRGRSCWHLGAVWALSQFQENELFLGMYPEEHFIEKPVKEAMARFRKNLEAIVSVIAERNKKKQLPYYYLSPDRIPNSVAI

H3K27 me2-1 = experiment: Cell-based detection methyl modifications; settings: read-out: % Inhibition of Control Values
H3K4 me2 = experiment: Cell-based detection methyl modifications; settings: read-out: % Inhibition of Control Values
HDAC8 (h) = target: T3, HDAC8 (h) (Homo sapiens, UniProt Q9BY41); experiment: Epigenetic enzyme assay, Histone deacetylase (HDACs); format: biochemical; settings: read-out: % Inhibition of Control Values
T3 sequence (Q9BY41 1-377): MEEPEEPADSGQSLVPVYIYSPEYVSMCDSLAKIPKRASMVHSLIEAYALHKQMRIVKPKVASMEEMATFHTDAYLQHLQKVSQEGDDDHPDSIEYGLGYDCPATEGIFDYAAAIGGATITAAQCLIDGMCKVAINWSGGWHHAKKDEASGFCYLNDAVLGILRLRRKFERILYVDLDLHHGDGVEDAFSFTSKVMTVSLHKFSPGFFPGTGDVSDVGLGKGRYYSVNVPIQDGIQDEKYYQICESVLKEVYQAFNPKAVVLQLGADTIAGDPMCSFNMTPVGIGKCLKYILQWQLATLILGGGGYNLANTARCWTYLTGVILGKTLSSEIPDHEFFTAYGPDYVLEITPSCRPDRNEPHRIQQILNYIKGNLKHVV

[1] = target: CYP2D6 (Dextromethorphan Substrate) (Homo sapiens, UniProt P10635); experiment: Cytochrome P450 Inhibition (CYP panel); settings: CYP2D6 (dextromethorphan sub.); Human liver microsomes; 1 μM
HDAC9 (h) = HDAC9 (h) (Homo sapiens, UniProt Q9UKV0); experiment: Epigenetic enzyme assay, Histone deacetylase (HDACs); format: biochemical; settings: read-out: % Inhibition of Control Values
MYST3(h) = MYST3(h) (Homo sapiens, UniProt Q92794); experiment: Epigenetic enzyme assay, Histone acetyltransferases (HATs); format: biochemical; settings: read-out: % Inhibition of Control Values
Hs 729 = experiment: OncoPanel cell proliferation assay (10-day); format: cell-based, human; settings: for EC50 / GI50 / IC50: Homo sapiens, Hs 729, Soft Tissue - Sarcoma; for EC50: read-out: Cell Count EC50; for GI50: read-out: Cell Count GI50; for IC50: read-out: Cell Count IC50
Histamine H2 = target: T4, Histamine H2 (Homo sapiens, UniProt P25021); experiment: Histamine H2 radio ligand binding
T4 construct: expressed in transfected cells; host or cells: CHO-K1 cells
Method: as §1

Thioredoxin Reductase = target: T5, Thioredoxin Reductase (Escherichia coli, UniProt P0A9P4); experiment: Thioredoxin Reductase; format: biochemical, E. coli
T5 construct: host or cells: E. coli
Method: as §1

CREBBP(h) = CREBBP(h) (Homo sapiens, UniProt Q92793); experiment: Epigenetic enzyme assay, Histone acetyltransferases (HATs); format: biochemical; settings: for inhibition at 10 µM: read-out: % Inhibition of Control Values; for IC50: Table 11, inhibition/concentration-response curve
[2] = assay year 2014, read-out: % Control Response
[3] = assay year 2015, read-out: % Control Response

T5 sequence (P0A9P4 2-321): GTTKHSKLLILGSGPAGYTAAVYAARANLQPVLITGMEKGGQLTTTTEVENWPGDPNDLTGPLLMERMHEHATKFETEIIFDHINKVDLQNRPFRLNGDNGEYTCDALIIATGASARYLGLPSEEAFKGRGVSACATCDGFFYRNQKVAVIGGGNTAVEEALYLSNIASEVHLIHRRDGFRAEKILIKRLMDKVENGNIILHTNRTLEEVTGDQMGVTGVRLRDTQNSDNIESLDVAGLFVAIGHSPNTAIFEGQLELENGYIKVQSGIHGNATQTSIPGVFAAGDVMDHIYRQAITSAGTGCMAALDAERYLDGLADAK
Sequence of CYP2D6 (Dextromethorphan Substrate) (P10635 whole entry): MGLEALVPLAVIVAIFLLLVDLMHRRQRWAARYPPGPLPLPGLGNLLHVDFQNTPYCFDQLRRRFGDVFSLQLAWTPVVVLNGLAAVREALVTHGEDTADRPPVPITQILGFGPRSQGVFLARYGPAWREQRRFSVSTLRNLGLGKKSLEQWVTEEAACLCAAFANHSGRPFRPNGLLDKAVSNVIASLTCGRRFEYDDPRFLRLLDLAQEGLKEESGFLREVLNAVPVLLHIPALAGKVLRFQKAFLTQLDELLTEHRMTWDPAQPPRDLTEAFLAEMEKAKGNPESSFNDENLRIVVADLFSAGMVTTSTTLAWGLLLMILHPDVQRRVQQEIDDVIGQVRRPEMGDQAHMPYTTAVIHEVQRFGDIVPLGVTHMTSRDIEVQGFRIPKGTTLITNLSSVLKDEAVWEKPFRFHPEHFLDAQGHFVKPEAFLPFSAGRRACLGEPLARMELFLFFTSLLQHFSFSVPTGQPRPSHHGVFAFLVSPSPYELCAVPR
Sequence of CREBBP(h) (Q92793 whole entry): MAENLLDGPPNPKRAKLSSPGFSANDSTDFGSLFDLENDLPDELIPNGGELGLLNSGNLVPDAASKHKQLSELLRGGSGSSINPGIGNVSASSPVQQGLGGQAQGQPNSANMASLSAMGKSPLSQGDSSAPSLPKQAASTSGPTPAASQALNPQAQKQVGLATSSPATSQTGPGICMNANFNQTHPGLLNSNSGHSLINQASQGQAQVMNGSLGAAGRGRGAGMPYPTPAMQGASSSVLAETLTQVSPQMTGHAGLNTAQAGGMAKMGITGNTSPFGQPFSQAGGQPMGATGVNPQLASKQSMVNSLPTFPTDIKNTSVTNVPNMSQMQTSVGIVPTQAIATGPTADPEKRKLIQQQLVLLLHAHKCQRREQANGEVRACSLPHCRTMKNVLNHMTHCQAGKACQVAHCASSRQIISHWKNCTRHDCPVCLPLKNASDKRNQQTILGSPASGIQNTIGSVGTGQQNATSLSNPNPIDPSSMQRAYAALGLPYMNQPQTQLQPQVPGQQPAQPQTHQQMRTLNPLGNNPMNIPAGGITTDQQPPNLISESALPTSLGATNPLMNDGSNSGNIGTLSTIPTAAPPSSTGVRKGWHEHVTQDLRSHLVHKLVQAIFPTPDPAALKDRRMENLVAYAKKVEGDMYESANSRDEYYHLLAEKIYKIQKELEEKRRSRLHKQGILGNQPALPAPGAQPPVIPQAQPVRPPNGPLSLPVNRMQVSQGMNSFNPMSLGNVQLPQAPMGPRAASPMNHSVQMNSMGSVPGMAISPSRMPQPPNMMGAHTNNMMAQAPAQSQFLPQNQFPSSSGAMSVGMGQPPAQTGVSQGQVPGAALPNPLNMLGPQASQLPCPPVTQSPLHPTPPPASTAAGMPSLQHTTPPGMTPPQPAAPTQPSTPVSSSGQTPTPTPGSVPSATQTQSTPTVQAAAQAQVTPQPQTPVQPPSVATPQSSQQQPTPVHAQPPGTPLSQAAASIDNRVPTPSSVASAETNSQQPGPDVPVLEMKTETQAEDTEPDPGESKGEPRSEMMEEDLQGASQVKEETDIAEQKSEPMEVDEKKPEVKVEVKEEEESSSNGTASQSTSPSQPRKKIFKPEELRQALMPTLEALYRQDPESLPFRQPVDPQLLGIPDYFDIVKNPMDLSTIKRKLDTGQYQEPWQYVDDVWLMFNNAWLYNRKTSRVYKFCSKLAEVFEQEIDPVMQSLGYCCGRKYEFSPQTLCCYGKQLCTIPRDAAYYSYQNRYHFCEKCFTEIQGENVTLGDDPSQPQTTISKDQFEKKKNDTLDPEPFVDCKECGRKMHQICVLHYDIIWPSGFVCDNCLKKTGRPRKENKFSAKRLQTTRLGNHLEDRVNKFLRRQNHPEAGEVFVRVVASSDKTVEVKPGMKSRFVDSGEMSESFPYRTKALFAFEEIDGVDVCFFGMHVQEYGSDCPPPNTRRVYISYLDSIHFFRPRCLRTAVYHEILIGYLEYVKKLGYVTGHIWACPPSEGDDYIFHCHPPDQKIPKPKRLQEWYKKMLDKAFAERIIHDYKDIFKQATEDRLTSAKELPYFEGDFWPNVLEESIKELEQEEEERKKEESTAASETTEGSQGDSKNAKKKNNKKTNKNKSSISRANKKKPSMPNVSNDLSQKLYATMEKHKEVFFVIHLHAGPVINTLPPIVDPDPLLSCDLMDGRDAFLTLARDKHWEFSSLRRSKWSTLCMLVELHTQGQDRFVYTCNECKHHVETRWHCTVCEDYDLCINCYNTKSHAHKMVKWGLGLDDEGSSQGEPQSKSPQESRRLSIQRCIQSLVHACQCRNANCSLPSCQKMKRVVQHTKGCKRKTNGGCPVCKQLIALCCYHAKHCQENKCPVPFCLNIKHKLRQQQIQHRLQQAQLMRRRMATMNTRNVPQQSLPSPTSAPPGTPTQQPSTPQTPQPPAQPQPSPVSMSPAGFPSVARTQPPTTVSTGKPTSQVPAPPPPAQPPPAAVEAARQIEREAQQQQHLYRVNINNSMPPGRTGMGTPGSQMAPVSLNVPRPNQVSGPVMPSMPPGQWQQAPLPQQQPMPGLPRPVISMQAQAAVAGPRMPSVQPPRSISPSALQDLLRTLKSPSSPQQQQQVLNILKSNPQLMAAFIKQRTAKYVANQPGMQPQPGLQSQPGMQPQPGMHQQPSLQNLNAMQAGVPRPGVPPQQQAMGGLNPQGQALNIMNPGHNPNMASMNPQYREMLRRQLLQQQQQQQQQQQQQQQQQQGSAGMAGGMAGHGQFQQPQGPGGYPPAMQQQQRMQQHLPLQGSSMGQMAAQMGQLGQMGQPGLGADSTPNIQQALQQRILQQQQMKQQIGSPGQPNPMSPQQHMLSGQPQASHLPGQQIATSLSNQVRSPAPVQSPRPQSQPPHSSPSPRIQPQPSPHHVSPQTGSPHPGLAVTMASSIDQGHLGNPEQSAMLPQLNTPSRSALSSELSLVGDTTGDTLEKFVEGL
Sequence of HDAC9 (h) (Q9UKV0 whole entry): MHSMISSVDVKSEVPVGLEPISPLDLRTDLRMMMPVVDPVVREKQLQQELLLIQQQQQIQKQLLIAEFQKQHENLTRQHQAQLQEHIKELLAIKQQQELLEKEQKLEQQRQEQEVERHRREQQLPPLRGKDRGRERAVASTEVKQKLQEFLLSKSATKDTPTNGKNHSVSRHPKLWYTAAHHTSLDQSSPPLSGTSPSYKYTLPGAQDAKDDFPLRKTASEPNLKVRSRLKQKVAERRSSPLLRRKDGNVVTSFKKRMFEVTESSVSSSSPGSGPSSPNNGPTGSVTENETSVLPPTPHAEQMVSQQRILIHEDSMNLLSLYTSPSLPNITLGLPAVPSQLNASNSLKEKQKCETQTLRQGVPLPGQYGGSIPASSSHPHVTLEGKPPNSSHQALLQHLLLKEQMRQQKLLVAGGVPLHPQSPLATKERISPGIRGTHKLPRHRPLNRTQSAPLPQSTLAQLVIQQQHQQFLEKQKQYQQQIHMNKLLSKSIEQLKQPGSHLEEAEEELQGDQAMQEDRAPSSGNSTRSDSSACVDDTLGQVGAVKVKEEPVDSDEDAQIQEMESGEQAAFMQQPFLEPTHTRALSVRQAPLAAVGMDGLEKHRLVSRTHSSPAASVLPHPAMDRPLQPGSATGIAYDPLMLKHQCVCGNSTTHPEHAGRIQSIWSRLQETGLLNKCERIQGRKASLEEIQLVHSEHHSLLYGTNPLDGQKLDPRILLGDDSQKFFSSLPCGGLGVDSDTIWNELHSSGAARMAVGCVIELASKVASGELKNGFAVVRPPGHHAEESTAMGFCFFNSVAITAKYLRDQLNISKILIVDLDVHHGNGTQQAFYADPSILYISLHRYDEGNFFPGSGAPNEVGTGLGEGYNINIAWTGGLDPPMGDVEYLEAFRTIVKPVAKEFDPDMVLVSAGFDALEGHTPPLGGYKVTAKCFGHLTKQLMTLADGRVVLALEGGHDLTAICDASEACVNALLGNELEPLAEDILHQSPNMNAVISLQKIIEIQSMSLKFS
T4 sequence (P25021 whole entry): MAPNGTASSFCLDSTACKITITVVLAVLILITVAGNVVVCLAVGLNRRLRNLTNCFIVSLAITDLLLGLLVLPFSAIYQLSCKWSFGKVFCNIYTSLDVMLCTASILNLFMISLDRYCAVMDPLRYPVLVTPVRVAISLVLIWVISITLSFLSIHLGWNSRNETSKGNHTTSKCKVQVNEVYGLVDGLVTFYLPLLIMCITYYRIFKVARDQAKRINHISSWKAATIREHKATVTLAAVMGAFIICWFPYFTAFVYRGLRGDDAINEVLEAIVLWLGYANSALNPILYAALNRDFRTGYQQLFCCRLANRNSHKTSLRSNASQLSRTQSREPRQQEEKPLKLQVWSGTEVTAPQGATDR

Compound	% Control Response, Agonist (Angiotensin, AT1/ACE) [%]	% Control Response, Antagonist (Angiotensin, AT1/ACE) [%]	inhibition at 10 µM (PRMT4 (h)) [%]	IC50 (PRMT4 (h)) [µM]	% Inhibition of Control Values (MLL2(h) complex) [%]	remaining activity at 10 µM (5-Lipoxygenase) [%]	inhibition at 10 µM (H3K27 me2-1) [%]	inhibition at 10 µM (H3K4 me2) [%]	inhibition at 10 µM (HDAC8 (h)) [%]	% Inhibition of Control Values [1] [%]	inhibition at 10 µM (HDAC9 (h)) [%]	inhibition at 10 µM (MYST3(h)) [%]	EC50 (Hs 729) [µM]	GI50 (Hs 729) [µM]	IC50 (Hs 729) [µM]	remaining activity at 10 µM (Histamine H2; [2]) [%]	remaining activity at 10 µM (Histamine H2; [3]) [%]	remaining activity at 10 µM (Thioredoxin Reductase; [2]) [%]	remaining activity at 10 µM (Thioredoxin Reductase; [3]) [%]	inhibition at 10 µM (CREBBP(h)) [%]	further results
CC(C)=CCC[C@H](CO)[C@@H]1CC[C@@H](C)c2c1cc(C)c(O)c2O [Compound 1, 7,8,18-trihydroxyserrulat-14-ene]	0	34	90	4.7	6	79	-2	-5	-8	13	-50	18	2.77	2.67	2.78	67	73	71	35	74	IC50 (5-Lipoxygenase; concentration-response 10 to 0.01 μM): 2.3 µM and 2.31 µM; Relative cell count (%) Mean (Hs 729; Hs 729, 3.00E+00 microM): 46.0%; Relative cell count (%) Mean (Hs 729; Hs 729, 3.00E+01 microM): 1.0%; Relative cell count (%) Mean (Hs 729; Hs 729, 3.01E−01 microM): 99.4%; Relative cell count (%) Mean (Hs 729; Hs 729, 3.01E−02 microM): 107.0%; Relative cell count (%) Mean (Hs 729; Hs 729, 3.02E−03 microM): 103.0%; Relative cell count (%) Mean (Hs 729; Hs 729, 9.49E+00 microM): 3.2%; Relative cell count (%) Mean (Hs 729; Hs 729, 9.51E−01 microM): 98.9%; Relative cell count (%) Mean (Hs 729; Hs 729, 9.52E−02 microM): 99.9%; Relative cell count (%) Mean (Hs 729; Hs 729, 9.53E−03 microM): 108.7%; Relative cell count (%) Mean (Hs 729; Hs 729, 9.55E−04 microM): 100.6%; % Control Response (Thioredoxin Reductase; 10 μM, assay year 2014): inhibited the activity; IC50 (CREBBP(h)): 3.9 µM
CC(C)=CCC[C@@H]1C(O)Oc2c(C)cc(O)c3c2[C@H]1CC[C@H]3C (stereo partly shown) [Compound 2, 5,18-epoxyserrulat-14-en-8,18-diol]	0	10	84	5.4	3	53	3	-1	-19	18	-1	11	23.3	21.8	23.3	24	-5	6	12	78	IC50 (CREBBP(h)): 6.1 µM
CC(C)=CCC[C@@H]1COc2c(C)cc(O)c3c2[C@H]1CC[C@H]3C [Compound 3, 5,18-epoxy-8-hydroxyserrulat-14-ene]	0	17	77	–	−15	67	2	-9	0	–	-9	3	–	–	–	–	66	–	9	43	–
CC(C)=CCC[C@H](C)[C@@H]1CC[C@@H](C)c2c1cc(C)c(O)c2O [Compound 4, 7,8-dihydroxyserrulat-14-ene]	–	–	–	4.7	–	–	–	–	–	21	–	–	11.9	11.6	11.9	–	–	–	–	–	–
Nc1ncnc2c1ncn2[C@@H]1O[C@H](CSCC[C@H](N)C(=O)O)[C@@H](O)[C@H]1O [SAH]	–	–	–	–	–	–	–	–	–	–	–	–	–	–	–	–	–	–	–	–	IC50 (MLL2(h) complex; read-out: Reference IC50): 24 µM
